SMILES strings stand for the structures.

Format in all cases: in vivo
The subject of assay [1] is green peach aphid (Myzus persicae (Sulzer)). Put plainly: Test A: control of green peach aphid on pre-infested radish plant, spray. Conditions: 144 h, visually assessed after 6 days; for mortality at 50 ppm: sprayed at 50 ppm; for mortality at 250 ppm: sprayed at 250 ppm. The procedure:
(§1) Test compounds were formulated using a solution containing 10% acetone, 90% water and 300 ppm X-77® Spreader Lo-Foam Formula non-ionic surfactant containing alkylarylpolyoxyethylene, free fatty acids, glycols and isopropanol (Loveland Industries, Inc. Greeley, Colorado, USA). The formulated compounds were applied in 1 mL of liquid through a SUJ2 atomizer nozzle with 1/8 JJ custom body (Spraying Systems Co. Wheaton, Illinois, USA) positioned 1.27 cm (0.5 inches) above the top of each test unit. Test compounds were sprayed at the rates indicated, and each test was replicated three times.
For evaluating control of green peach aphid (Myzus persicae (Sulzer)) through contact and/or systemic means, the test unit consisted of a small open container with a 12-15-day-old radish plant inside. This was pre-infested by placing on a leaf of the test plant 30-40 aphids on a piece of leaf excised from a culture plant (cut-leaf method). The aphids moved onto the test plant as the leaf piece desiccated. After pre-infestation, the soil of the test unit was covered with a layer of sand.
Test compounds were formulated and sprayed at 250 and/or 50 ppm. After spraying of the formulated test compound, each test unit was allowed to dry for 1 hour and then a black, screened cap was placed on top. The test units were held for 6 days in a growth chamber at 19-21° C. and 50-70% relative humidity. Each test unit was then visually assessed for insect mortality.

Assay [2] relates to cotton melon aphid (Aphis gossypii (Glover)). The assay can be described thus: Test B: control of cotton melon aphid on pre-infested cotton plant, spray. Conditions: 144 h, sprayed at 50 ppm, visually assessed after 6 days. The method, then:
as §1
For evaluating control of cotton melon aphid (Aphis gossypii (Glover)) through contact and/or systemic means, the test unit consisted of a small open container with a 6-7-day-old cotton plant inside. This was pre-infested with 30-40 insects on a piece of leaf according to the cut-leaf method, and the soil of the test unit was covered with a layer of sand.
Test compounds were formulated and sprayed at 250 and/or 50 ppm. After spraying, the test units were maintained in a growth chamber for 6 days at 19° C. and 70% relative humidity. Each test unit was then visually assessed for insect mortality.

The subject of assay [3] is sweetpotato whitefly (Bemisia tabaci (Gennadius)). Put plainly: Test C: control of sweetpotato whitefly on egg-infested cotton plant, spray. Conditions: 312 h, cotton plant with eggs, visually assessed after 13 days; for mortality at 250 ppm: sprayed at 250 ppm. The method, then: as §1
For evaluating control of the sweetpotato whitefly (Bemisia tabaci (Gennadius)) through contact and/or systemic means, the test unit consisted of a small open container with a 12-14-day-old cotton plant inside. Prior to the spray application, both cotyledons were removed from the plant, leaving one true leaf for the assay. Adult whiteflies were allowed to lay eggs on the plant and then were removed from the test unit. Cotton plants infested with at least 15 eggs were submitted to the test for spraying.
Test compounds were formulated and sprayed at 250 and/or 50 ppm. After spraying, the test units were allowed to dry for 1 hour. The cylinders were then removed, and the units were taken to a growth chamber and held for 13 days at 28° C. and 50-70% relative humidity. Each test unit was then visually assessed for insect mortality.

Assay [4] deals with Western Flower Thrips (Frankliniellla occidentalis (Pergande)). The assay can be described thus: Test D: control of Western Flower Thrips on Soleil bean plant, spray. The settings on record: adult thrips, held 6 days. The procedure: as §1
For evaluating control of the Western Flower Thrips (Frankliniellla occidentalis (Pergande)) through contact and/or systemic means, the test unit consisted of a small open container with a 5-7-day-old Soleil bean plant inside.
Test compounds were formulated and sprayed at 250 and/or 50 ppm. After spraying, the test units were allowed to dry for 1 hour, and then 22-27 adult thrips were added to each unit. A black, screened cap was placed on top, and the test units were held for 6 days at 25° C. and 45-55% relative humidity.

For the compound `O=C(NC1(C(F)F)CC1)c1cccc2nn(-c3cccnc3)cc12` [Compound 1, N-[1-(difluoromethyl)cyclopropyl]-2-(3-pyridinyl)-2H-indazole-4-carboxamide], the values for the mortality at 50 ppm in assay [1], in assay [2] and in assay [3] (sprayed at 50 ppm) were no less than 80%, no less than 80% and no less than 50%, respectively. For the same compound, the mortality – broadly, the percentage killed – at 250 ppm in assay [1] was no less than 80%; in assay [3] it was no less than 50%. The “control efficacy (30% or less plant damage and/or 100% mortality)” value in assay [4] (sprayed at 50 ppm) and in assay [4] (sprayed at 250 ppm) was “very good to excellent levels of control efficacy” in each case.
Consider `CSCC(C)(C)NC(=O)c1ccc(F)c2nn(-c3cccnc3)cc12` [Compound 2a, N-[1,1-dimethyl-2-(methylthio)ethyl]-7-fluoro-2-(3-pyridinyl)-2H-indazole-4-carboxamide], for which the mortality at 50 ppm in assay [1] and in assay [2] was no less than 80% each time. The compound also had a mortality at 250 ppm in assay [1] of no less than 80%. Moreover, the “control efficacy (30% or less plant damage and/or 100% mortality)” value in assay [4] (sprayed at 50 ppm) and in assay [4] (sprayed at 250 ppm) was “very good to excellent levels of control efficacy” throughout.
Consider `C[S+]([O-])CC(C)(C)NC(=O)c1ccc(F)c2nn(-c3cccnc3)cc12` (stereo not shown) [Compound 2b, N-[1,1-dimethyl-2-(methylsulfinyl)ethyl]-7-fluoro-2-(3-pyridinyl)-2H indazole-4-carboxamide], for which the mortality at 50 ppm in assay [1] and in assay [2] was no less than 80% throughout. The compound further came in with a mortality at 250 ppm in assay [3] of no less than 50%. For the same compound, the “control efficacy (30% or less plant damage and/or 100% mortality)” value in assay [4] (sprayed at 50 ppm) and in assay [4] (sprayed at 250 ppm) was “very good to excellent levels of control efficacy” each time.
As for `CC(C)(CS(C)(=O)=O)NC(=O)c1ccc(F)c2nn(-c3cccnc3)cc12` [Compound 2c, N-[1,1-dimethyl-2-(methylsulfonyl)ethyl]-7-fluoro-2-(3-pyridinyl)-2H indazole-4-carboxamide], the mortality at 50 ppm in assay [1] and in assay [2] was no less than 80% in each case.

These data come from patent US12030865B2, “Pesticidal mixtures comprising indazoles” (FMC Corporation, priority 2018, dated 2024).
